Patent US20020026053A1, “Novel 3-(substituted) -2- indolinones compounds and use thereof as inhibitors of protein kinase activity” (priority 1997, published 2002)
Where “and” joins values, the source holds several entries; their conditions need not be identical. Equal values may be shown once.

What was measured:
EGFR = biological target: T1, EGFR (Homo sapiens, UniProt P00533); assay: Biochemical EGFR Assay; design: concentration or dose not given beside the values
T1 construct: endogenous in cells; host or cells: A431 cells (lysate, captured with SUMO1 anti-EGFR antibody)
Experimental: This assay measures the in vitro kinase activity of EGFR using ELISA.
1. Corning 96-well Elisa plates (Corning Catalog No. 25805-96).
2. SUMO1 monoclonal anti-EGFR antibody (Biochemistry Lab, SUGEN, Inc.).
3. PBS (Dulbecco's Phosphate-Buffered Saline, Gibco Catalog No. 450-1300EB).
6. A431 cell lysate (Screening Lab, SUGEN, Inc.)
9. Adenosine-5′-triphosphate (ATP, from Equine muscle, Sigma Cat. No. A-5394).
Prepare a 1.0 mM solution in dH2O. This reagent should be made up immediately prior to use and kept on ice.
Prepare a 1.0 M stock solution in dH2O.
11. ATP/MnCl2 phosphorylation mix
This reagent should be prepared immediately before use and kept on ice
12. NUNC 96-well V bottom polypropylene plates (Applied Scientific Cat. No. AS-72092).
13. Ethylenediaminetetraacetic acid (EDTA)
Prepare 200 mM working solution in dH2O. Adjust to pH 8.0 with 10 N NaOH.
14. Rabbit polyclonal anti-phosphotyrosine serum (Biochemistry Lab, SUGEN, Inc.)
15. Goat anti-rabbit IgG peroxidase conjugate (Biosource Cat. No. ALI0404)
16. ABTS (2,2′-azino-bis(3-ethylbenzthiazoline-6-sulfonic acid), Sigma Cat. No. A-1888).
Mix first two ingredients in about 900 ml dH2O, adjust pH to 4.0 with phosphoric acid. Add ABTS, cover, let sit about 0.5 hr., filter. The solution should be kept in the dark at 4° C. until ready to use.
17. Hydrogen peroxide 30% solution (Fisher Cat. No. H325)
Mix 15 ml ABTS solution and 2.0 μl H2O2. Prepare 5 minutes before use.
1. Coat Corning 96 well ELISA plates with 0.5 μg SUMO1 in 100 μl PBS per well, store overnight at 4° C.
2. Remove unbound SUMO1 from wells by inverting plate to remove liquid. Wash 1× with dH2O. Pat the plate on a paper towel to remove excess liquid.
3. Add 150 μl of Blocking Buffer to each well. Incubate for 30 min. at room temperature with shaking.
4. Wash plate 3× with deionized water, then once with TBST. Pat plate on a paper towel to remove excess liquid and bubbles.
5. Dilute lysate in PBS (7 μg lysate/100 μl PBS)
6. Add 100 μl of diluted lysate to each well. Shake at room temperature for 60 min.
7. Wash plates as described in 4, above.
8. Add 120 μl TBS to ELISA plate containing captured EGFR.
9. Dilute test compound 1:10 in TBS in 96-well polypropylene plates (ie. 10 μl compound+90 μl TBS).
10. Add 13.5 μl diluted test compound to ELISA plate.
11. Incubate for 30 minutes while shaking at room temperature.
13. After 5 minutes, stop reaction by adding 16.5 μl of 200 mM EDTA (pH 8.0) to each well, shaking continuously. After the EDTA has been added, shake for 1 min.
14. Wash 4× with deionized water, twice with TBST.
15. Add 100 μl anti-phosphotyrosine (1:3000 dilution in TBST) per well. Incubate 30-45 min. at room temperature, with shaking.
16. Wash as described in 4, above.
17. Add 100 μl Biosource Goat anti-rabbit IgG peroxidase conjugate (1:2000 dilution in TBST) to each well. Incubate 30 min. at room temperature, with shaking.
18. Wash as described in 4, above.
19. Add 100 μl of ABTS/H2O2 solution to each well.
20. Incubate 5 to 10 minutes with shaking. Remove any bubbles.
21. If necessary stop reaction with the addition of 100 μl 0.2 M HCl per well.
22. Read assay on Dynatech MR7000 ELISA reader. Test Filter: 410 nM Reference Filter: 630 nM

PDGF-R = PDGF-R Assay (cellular ELISA, U1242 cells); assay type: cell-based; design: concentration or dose not given beside the values
Experimental: The cellular/catalytic assays described herein are performed in an ELISA format. The general procedure is as follows: a compound is introduced to cells expressing the test kinase, either naturally or recombinantly, for a selected period of time after which, if the test kinase is a receptor, a ligand known to activate the receptor is added. The cells are lysed and the lysate is transferred to the wells of an ELISA plate previously coated with a specific antibody recognizing the substrate of the enzymatic phosphorylation reaction. Non-substrate components of the cell lysate are washed away and the amount of phosphorylation on the substrate is detected with an antibody specifically recognizing phosphotyrosine compared with control cells that were not contacted with a test compound.
All cell culture media, glutamine, and fetal bovine serum can be purchased from Gibco Life Technologies (Grand Island, N.Y.) unless otherwise specified. All cells are grown in a humid atmosphere of 90-95% air and 5-10% CO2 at 37° C. All cell lines are routinely subcultured twice a week and are negative for mycoplasma as determined by the Mycotect method (Gibco).
For ELISA assays, cells (U1242, obtained from Joseph Schlessinger, NYU) are grown to 80-90% confluency in growth medium (MEM with 10% FBS, NEAA, 1 mM NaPyr and 2 mM GLN) and seeded in 96-well tissue culture plates in 0.5% serum at 25,000 to 30,000 cells per well. After overnight incubation in 0.5% serum-containing medium, cells are changed to serum-free medium and treated with test compound for 2 hr in a 5% CO2, 37° C. incubator. Cells are then stimulated with ligand for 5-10 minute followed by lysis with HNTG (20 mM Hepes, 150 mM NaCl, 10% glycerol, 5 mM EDTA, 5 mM Na3VO4, 0.2% Triton X-100, and 2 mM NaPyr). Cell lysates (0.5 mg/well in PBS) are transferred to ELISA plates previously coated with receptor-specific antibody and which had been blocked with 5% milk in TBST (50 mM Tris-HCl pH 7.2, 150 mM NaCl and 0.1% Triton X-100) at room temperature for 30 min. Lysates are incubated with shaking for 1 hour at room temperature. The plates are washed with TBST four times and then incubated with polyclonal anti-phosphotyrosine antibody at room temperature for 30 minutes. Excess anti-phosphotyrosine antibody is removed by rinsing the plate with TBST four times. Goat anti-rabbit IgG antibody is added to the ELISA plate for 30 min at room temperature followed by rinsing with TBST four more times. ABTS (100 mM citric acid, 250 mM Na2HPO4 and 0.5 mg/mL 2,2′-azino-bis (3-ethylbenzthiazoline-6-sulfonic acid)) plus H2O2 ([…] 30% H2O2 to 10 ml ABTS) is added to the ELISA plates to start color development. Absorbance at 410 nm with a reference wavelength of 630 nm is recorded about 15 to 30 min after ABTS addition.

T1 sequence (P00533 25-1210): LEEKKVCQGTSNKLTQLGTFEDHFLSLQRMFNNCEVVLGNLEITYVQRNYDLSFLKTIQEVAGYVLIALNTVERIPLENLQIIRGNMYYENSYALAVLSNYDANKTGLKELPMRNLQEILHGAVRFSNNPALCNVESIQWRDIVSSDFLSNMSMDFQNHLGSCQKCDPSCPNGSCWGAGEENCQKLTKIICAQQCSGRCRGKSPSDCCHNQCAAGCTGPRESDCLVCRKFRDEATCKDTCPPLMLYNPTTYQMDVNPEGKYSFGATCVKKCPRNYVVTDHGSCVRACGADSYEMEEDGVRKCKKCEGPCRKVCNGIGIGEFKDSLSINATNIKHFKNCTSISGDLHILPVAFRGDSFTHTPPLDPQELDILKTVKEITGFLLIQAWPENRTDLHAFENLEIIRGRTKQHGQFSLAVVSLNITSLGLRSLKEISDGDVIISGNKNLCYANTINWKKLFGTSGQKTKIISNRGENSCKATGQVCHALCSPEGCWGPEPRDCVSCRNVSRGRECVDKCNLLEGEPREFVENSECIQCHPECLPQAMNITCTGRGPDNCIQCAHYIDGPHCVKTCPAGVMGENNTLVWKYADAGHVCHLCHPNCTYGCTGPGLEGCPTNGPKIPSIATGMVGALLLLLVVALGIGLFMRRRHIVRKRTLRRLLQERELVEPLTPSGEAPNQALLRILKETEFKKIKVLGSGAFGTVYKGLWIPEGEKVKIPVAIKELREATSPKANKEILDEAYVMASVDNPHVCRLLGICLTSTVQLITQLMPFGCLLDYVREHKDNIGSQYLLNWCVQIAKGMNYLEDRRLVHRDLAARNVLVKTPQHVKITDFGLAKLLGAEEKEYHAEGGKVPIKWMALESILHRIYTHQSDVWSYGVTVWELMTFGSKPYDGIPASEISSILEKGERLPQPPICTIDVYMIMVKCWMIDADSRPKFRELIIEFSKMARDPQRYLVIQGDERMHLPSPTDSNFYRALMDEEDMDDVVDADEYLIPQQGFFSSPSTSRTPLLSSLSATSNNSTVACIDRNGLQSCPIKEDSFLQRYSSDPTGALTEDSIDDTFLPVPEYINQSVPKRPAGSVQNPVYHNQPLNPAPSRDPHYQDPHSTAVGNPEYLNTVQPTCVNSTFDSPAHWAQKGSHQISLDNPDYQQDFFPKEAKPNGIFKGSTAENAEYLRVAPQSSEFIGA

SMILES	Biochem EGFR % Inhibition (P.167) (EGFR)	PDGF Kinase % Inhibition (P.119) (PDGF-R)
Cc1c(Br)cc(Br)c2c1C(=Cc1ccc(F)cc1)C(=O)N2 [10717/H05]	−2.0%	
Cc1c(Br)cc(Br)c2c1C(=Cc1c[nH]c3ccccc13)C(=O)N2 [10717/H06]	−16.8%	
Cc1ccc(C=C2C(=O)Nc3c(Br)cc(Br)c(C)c32)s1 [10717/H07]	91.2%	
Cc1c(Br)cc(Br)c2c1C(=Cc1ccc(Br)cc1)C(=O)N2 [10717/H08]	33.4%	
Cc1c(Br)cc(Br)c2c1C(=Cc1ccc[nH]1)C(=O)N2 [10717/H09]	5.4%	
COc1cccc(O)c1C=C1C(=O)Nc2c(Br)cc(Br)c(C)c21 [10717/H10]	0.5%	
Cc1[nH]c(C=C2C(=O)Nc3c(Br)cc(Br)c(C)c32)c(Br)c1Br [10717/H11]	55.6%	
Cc1c(Br)cc(Br)c2c1C(=Cc1ccc(Br)o1)C(=O)N2 [10726/H05]	2.2%	−38.0%
Cc1cn(C)cc1C=C1C(=O)Nc2c(Br)cc(Br)c(C)c21 [10726/H06]	−9.2%	−20.9%
Cc1c(Br)cc(Br)c2c1C(=Cc1cc(O)c3c(c1O)CCCC3)C(=O)N2 [10726/H07]	31.2%	−30.4%
Cc1c(Br)cc(Br)c2c1C(=C1C(=O)Nc3ccc(F)cc31)C(=O)N2 [10726/H08]	−16.6%	15.1%
Cc1c(Br)cc(Br)c2c1C(=C1C(=O)Nc3ccccc31)C(=O)N2 [10726/H09]	−0.1%	15.1%
CCc1ccc(C=C2C(=O)Nc3c(Br)cc(Br)c(C)c32)s1 [10726/H10]	12.0%	6.9%
COc1ccc(C=C2C(=O)Nc3c(Br)cc(Br)c(C)c32)cc1 [10726/H11]	1.5%	−0.1%
CCN(CC)c1ccc(C=C2C(=O)Nc3c(Br)cc(Br)c(C)c32)cc1 [10727/H02]	−37.1%	−33.6%
CCc1cc(CC)c(C=C2C(=O)Nc3c(Br)cc(Br)c(C)c32)[nH]1 [10727/H03]	4.5%	−20.5%
Cc1c(Br)cc(Br)c2c1C(=Cc1cc(Cl)cc(Br)c1O)C(=O)N2 [10727/H04]	19.2%	13.7%
Cc1c(Br)cc(Br)c2c1C(=Cc1ccccc1Sc1ccc(Cl)cc1)C(=O)N2 [10727/H05]	0.4%	−28.5%

SMILES	Biochem EGFR % Inhibition (P.167) (EGFR)	PDGF Kinase % Inhibition (P.119) (PDGF-R)
Cc1c(Br)cc(Br)c2c1C(=Cc1cc3c(cc1Cl)OCO3)C(=O)N2 [10727/H06]	−35.8%	−40.8%
Cc1c(Br)cc(Br)c2c1C(=Cc1coc3ccccc3c1=O)C(=O)N2 [10727/H07]	−17.3%	−37.2%
Cc1c(Br)cc(Br)c2c1C(=Cc1cccc(C#N)c1)C(=O)N2 [10727/H08]	−8.0%	−27.0%
Cc1c(Br)cc(Br)c2c1C(=Cc1ccc(C#N)cc1)C(=O)N2 [10727/H09]	−6.1%	−11.7%
Cc1c(Br)cc(Br)c2c1C(=Cc1cc(O)ccc1O)C(=O)N2 [10727/H10]	83.6%	10.1%
COc1cccc(C=C2C(=O)Nc3c(Br)cc(Br)c(C)c32)c1OC [10727/H11]	−3.5%	2.8%
COc1ccc(OC)c(C=C2C(=O)Nc3c(Br)cc(Br)c(C)c32)c1 [10728/H02]	−36.6%	−9.3%
COc1cccc(OC)c1C=C1C(=O)Nc2c(Br)cc(Br)c(C)c21 [10728/H03]	3.5%	−10.6%
COc1cc(C=C2C(=O)Nc3c(Br)cc(Br)c(C)c32)cc(OC)c1 [10728/H04]	−0.6%	−5.7%
COc1cc(N(C)C)ccc1C=C1C(=O)Nc2c(Br)cc(Br)c(C)c21 [10728/H05]		−10.6% and −5.3%
Cc1c(Br)cc(Br)c2c1C(=Cc1ccc3c(c1)Cc1ccccc1-3)C(=O)N2 [10728/H06]	−22.8%	−25.7%
Cc1c(Br)cc(Br)c2c1C(=Cc1cccc(C(F)(F)F)c1F)C(=O)N2 [10728/H07]	−25.8%	−1.7%
Cc1c(Br)cc(Br)c2c1C(=Cc1c(F)cccc1C(F)(F)F)C(=O)N2 [10728/H09]	−6.1%	−6.2%
Cc1c(Br)cc(Br)c2c1C(=Cc1ccccc1OCC(=O)O)C(=O)N2 [10728/H10]	−22.4%	4.5%
COc1cc(C=C2C(=O)Nc3c(Br)cc(Br)c(C)c32)cc2c1OCO2 [10728/H11]	−25.6%	−16.8%
COc1ccc2ccccc2c1C=C1C(=O)Nc2c(Br)cc(Br)c(C)c21 [10729/H02]	−10.7%	2.3%
COc1ccc(C=C2C(=O)Nc3c(Br)cc(Br)c(C)c32)c2ccccc12 [10729/H03]	30.3%	−0.7%
